In PMC5218480 (PLoS ONE, 2017):

Test system: MV-4-11 cells
Test: Gene expression microarray analysis (Affymetrix PrimeView) and GSEA
Type: cell-based, human
Set-up: RFU PODN (11730768_x_at) / Fold change /veh PODN (11730768_x_at) / RFU LINC00158 (11744669_a_at) / Fold change /veh LINC00158 (11744669_a_at) / RFU DUSP10 (11751237_a_at) / Fold change /veh DUSP10 (11751237_a_at) / RFU ID3 (11757404_x_at) / Fold change /veh ID3 (11757404_x_at) / RFU PLEKHG5 (11737974_s_at) / Fold change /veh PLEKHG5 (11737974_s_at) / RFU LRRC4B (11730491_at) / Fold change /veh LRRC4B (11730491_at) / RFU GIMAP4 (11747438_a_at) / Fold change /veh GIMAP4 (11747438_a_at) / RFU KRT8 (11758183_x_at) / Fold change /veh KRT8 (11758183_x_at) / RFU CNN1 (11734310_a_at) / Fold change /veh CNN1 (11734310_a_at) / RFU VPS37D (11726825_at) / Fold change /veh VPS37D (11726825_at) / RFU C10orf10 (11716522_x_at) / Fold change /veh C10orf10 (11716522_x_at) / RFU KIR2DL2 /// KIR2DL4 /// KIR2DL5A /// KIR2DL5B /// KIR2DS1 /// KIR2DS2 /// KIR2DS3 /// KIR2DS4 /// KIR3DL3 /// KIR3DL3 /// KIR3DS1 (11738374_at) / Fold change /veh KIR2DL2 /// KIR2DL4 /// KIR2DL5A /// KIR2DL5B /// KIR2DS1 /// KIR2DS2 /// KIR2DS3 /// KIR2DS4 /// KIR3DL3 /// KIR3DL3 /// KIR3DS1 (11738374_at) / RFU C1QL1 (11718748_at) / Fold change /veh C1QL1 (11718748_at) / RFU TMPRSS4 (11747572_a_at) / Fold change /veh TMPRSS4 (11747572_a_at) / RFU HAMP (11756126_x_at) / Fold change /veh HAMP (11756126_x_at) / RFU RNFT2 (11725882_a_at) / Fold change /veh RNFT2 (11725882_a_at) / RFU NR4A2 (11747474_a_at) / Fold change /veh NR4A2 (11747474_a_at) / RFU ABCC12 (11746883_a_at) / Fold change /veh ABCC12 (11746883_a_at) / RFU TMEM136 (11760407_x_at) / Fold change /veh TMEM136 (11760407_x_at) / RFU CLDN22 /// WWC2 (11732394_at) / Fold change /veh CLDN22 /// WWC2 (11732394_at) / RFU HLA-DPB1 (11760878_x_at) / Fold change /veh HLA-DPB1 (11760878_x_at) / RFU SPINT1 (11716480_a_at) / Fold change /veh SPINT1 (11716480_a_at) / RFU GAP43 (11754022_s_at) / Fold change /veh GAP43 (11754022_s_at) / RFU A4GNT (11735810_at) / Fold change /veh A4GNT (11735810_at) / RFU PRB3 (11715151_x_at) / Fold change /veh PRB3 (11715151_x_at) / RFU TUBB4B (11761932_at) / Fold change /veh TUBB4B (11761932_at) / RFU CAPN14 (11732068_a_at) / Fold change /veh CAPN14 (11732068_a_at) / RFU TMCC2 (11721928_a_at) / Fold change /veh TMCC2 (11721928_a_at) / RFU IRGQ (11745062_a_at) / Fold change /veh IRGQ (11745062_a_at) / RFU FAM174B (11720279_a_at) / Fold change /veh FAM174B (11720279_a_at) / RFU TMPRSS4 (11748680_a_at) / Fold change /veh TMPRSS4 (11748680_a_at) / RFU FAM212B (11763350_a_at) / Fold change /veh FAM212B (11763350_a_at) / RFU PLEKHG5 (11743358_a_at) / Fold change /veh PLEKHG5 (11743358_a_at) / RFU ZSCAN30 (11745921_a_at) / Fold change /veh ZSCAN30 (11745921_a_at) / RFU CMKLR1 (11741424_a_at) / Fold change /veh CMKLR1 (11741424_a_at) / RFU LOC101060620 /// MAPK8IP1 (11723275_at) / Fold change /veh LOC101060620 /// MAPK8IP1 (11723275_at) / RFU SPTSSB (11747773_x_at) / Fold change /veh SPTSSB (11747773_x_at) / RFU PRSS12 (11739890_at) / Fold change /veh PRSS12 (11739890_at) / RFU BIN1 (11741810_x_at) / Fold change /veh BIN1 (11741810_x_at) / RFU WNT11 (11732464_a_at) / Fold change /veh WNT11 (11732464_a_at) / RFU C10orf10 (11716521_a_at) / Fold change /veh C10orf10 (11716521_a_at) / RFU C5orf56 (11738089_at) / Fold change /veh C5orf56 (11738089_at) / RFU CYB561 (11721691_x_at) / Fold change /veh CYB561 (11721691_x_at) / RFU ANKRD19P (11752326_a_at) / Fold change /veh ANKRD19P (11752326_a_at) / RFU OR2T12 /// OR2T33 /// OR2T8 (11738714_s_at) / Fold change /veh OR2T12 /// OR2T33 /// OR2T8 (11738714_s_at) / RFU VCAN (11748164_a_at) / Fold change /veh VCAN (11748164_a_at) / RFU JSRP1 (11732532_at) / Fold change /veh JSRP1 (11732532_at) / RFU KRTAP10-11 (11738290_x_at) / Fold change /veh KRTAP10-11 (11738290_x_at) / RFU MYO3A (11730013_a_at) / Fold change /veh MYO3A (11730013_a_at) / RFU EBF3 (11725865_a_at) / Fold change /veh EBF3 (11725865_a_at) / RFU CAMK2N1 (11719241_x_at) / Fold change /veh CAMK2N1 (11719241_x_at) / RFU C5orf56 (11738088_a_at) / Fold change /veh C5orf56 (11738088_a_at) / RFU OLFML3 (11715873_a_at) / Fold change /veh OLFML3 (11715873_a_at) / RFU LOC100653217 /// NTM (11731650_a_at) / Fold change /veh LOC100653217 /// NTM (11731650_a_at) / RFU MAPK11 (11762145_a_at) / Fold change /veh MAPK11 (11762145_a_at) / RFU FIZ1 (11724087_x_at) / Fold change /veh FIZ1 (11724087_x_at) / RFU OASL (11726364_x_at) / Fold change /veh OASL (11726364_x_at) / RFU SOX15 (11748057_x_at) / Fold change /veh SOX15 (11748057_x_at) / RFU CD79A (11719716_a_at) / Fold change /veh CD79A (11719716_a_at) / RFU HIST1H1D (11736915_at) / Fold change /veh HIST1H1D (11736915_at) / RFU CASKIN2 (11723855_a_at) / Fold change /veh CASKIN2 (11723855_a_at) / RFU LOC730098 (11760151_x_at) / Fold change /veh LOC730098 (11760151_x_at) / RFU OR4N2 (11742367_at) / Fold change /veh OR4N2 (11742367_at) / RFU PRRT2 (11749266_a_at) / Fold change /veh PRRT2 (11749266_a_at) / RFU SNX32 (11753110_a_at) / Fold change /veh SNX32 (11753110_a_at) / RFU CDHR5 (11726645_a_at) / Fold change /veh CDHR5 (11726645_a_at) / RFU RCAN1 (11760418_a_at) / Fold change /veh RCAN1 (11760418_a_at) / RFU FAM167A (11723789_a_at) / Fold change /veh FAM167A (11723789_a_at) / RFU FAM26E (11764081_at) / Fold change /veh FAM26E (11764081_at) / RFU ISYNA1 (11749810_s_at) / Fold change /veh ISYNA1 (11749810_s_at) / RFU ACY1 (11761880_at) / Fold change /veh ACY1 (11761880_at) / RFU 11764098_at / Fold change /veh 11764098_at / RFU SAMD14 (11745864_x_at) / Fold change /veh SAMD14 (11745864_x_at) / RFU NPB (11741838_a_at) / Fold change /veh NPB (11741838_a_at) / RFU TMPRSS6 (11731388_a_at) / Fold change /veh TMPRSS6 (11731388_a_at) / RFU KRTAP10-2 (11738614_at) / Fold change /veh KRTAP10-2 (11738614_at) / RFU ARHGAP8 /// PRR5-ARHGAP8 (11727945_x_at) / Fold change /veh ARHGAP8 /// PRR5-ARHGAP8 (11727945_x_at) / RFU KRTAP5-7 /// NADSYN1 (11734609_at) / Fold change /veh KRTAP5-7 /// NADSYN1 (11734609_at) / RFU RASL12 (11751679_a_at) / Fold change /veh RASL12 (11751679_a_at) / RFU CDKN2B (11736163_a_at) / Fold change /veh CDKN2B (11736163_a_at) / RFU PRF1 (11729649_at) / Fold change /veh PRF1 (11729649_at) / RFU, ZNF638 /// ZNF638-IT1 / Fold change vs veh, ZNF638 /// ZNF638-IT1 / RFU, PANK3 / Fold change vs veh, PANK3 / RFU, SH3YL1 / Fold change vs veh, SH3YL1 / RFU, ZEB2 / Fold change vs veh, ZEB2 / RFU, NRIP1 / Fold change vs veh, NRIP1 / RFU, PTTG1IP / Fold change vs veh, PTTG1IP / RFU, CAPN2 / Fold change vs veh, CAPN2 / RFU, MED14 / Fold change vs veh, MED14 / RFU, SNORA58 / Fold change vs veh, SNORA58 / RFU, C1orf63 / Fold change vs veh, C1orf63 / RFU, LRRFIP1 / Fold change vs veh, LRRFIP1 / RFU, NDUFAF7 / Fold change vs veh, NDUFAF7 / RFU, SLC12A2 / Fold change vs veh, SLC12A2 / RFU, IBTK / Fold change vs veh, IBTK / RFU, ESF1 / Fold change vs veh, ESF1 / Fold change vs veh, TMEM50B / RFU, TAOK1 / Fold change vs veh, TAOK1 / RFU, ACBD3 / Fold change vs veh, ACBD3 / RFU, TMA16 / Fold change vs veh, TMA16 / RFU, RWDD3 / Fold change vs veh, RWDD3 / RFU, BCAT1 / Fold change vs veh, BCAT1 / RFU, EDEM3 / Fold change vs veh, EDEM3 / RFU, TMEM33 / Fold change vs veh, TMEM33 / RFU, WDR75 / Fold change vs veh, WDR75 / RFU, AHCTF1 / Fold change vs veh, AHCTF1 / RFU, TFRC / Fold change vs veh, TFRC / RFU, ZDHHC17 / Fold change vs veh, ZDHHC17 / RFU, NOM1 / Fold change vs veh, NOM1 / RFU, ARL8B / Fold change vs veh, ARL8B / RFU, ZBTB11 / Fold change vs veh, ZBTB11 / RFU, TAMM41 / Fold change vs veh, TAMM41 / RFU, KIAA1704 /// LOC100996395 / Fold change vs veh, KIAA1704 /// LOC100996395 / RFU, ING1 / Fold change vs veh, ING1 / RFU, TRMT61B / Fold change vs veh, TRMT61B / RFU, FUBP3 / Fold change vs veh, FUBP3 / RFU, TP53 / Fold change vs veh, TP53 / RFU, TNKS2 / Fold change vs veh, TNKS2 / RFU, ZFP14 / Fold change vs veh, ZFP14 / RFU, ACTR2 / Fold change vs veh, ACTR2 / RFU, PPP3R1 / Fold change vs veh, PPP3R1 / RFU, PIK3R1 / Fold change vs veh, PIK3R1 / RFU, HNRNPA1 / Fold change vs veh, HNRNPA1 / RFU, RNF170 / Fold change vs veh, RNF170 / RFU, ZNF28 / Fold change vs veh, ZNF28 / RFU, RNGTT / Fold change vs veh, RNGTT / RFU, OGT / Fold change vs veh, OGT / RFU, BRD1 / Fold change vs veh, BRD1 / RFU, MARS / Fold change vs veh, MARS / RFU, ZNF655 / Fold change vs veh, ZNF655 / RFU, FAHD1 / Fold change vs veh, FAHD1 / RFU, BDP1 / Fold change vs veh, BDP1 / RFU, LRRCC1 / Fold change vs veh, LRRCC1 / RFU, ARID1A / Fold change vs veh, ARID1A / RFU, ZNF146 / Fold change vs veh, ZNF146 / RFU, ZNF330 / Fold change vs veh, ZNF330 / RFU, GPN3 / Fold change vs veh, GPN3 / RFU, C9orf123 / Fold change vs veh, C9orf123 / RFU, N4BP2L2 / Fold change vs veh, N4BP2L2 / RFU, ARFIP1 / Fold change vs veh, ARFIP1 / RFU, FAM179B / Fold change vs veh, FAM179B / RFU, BCL10 / Fold change vs veh, BCL10 / RFU, UHRF1BP1L / Fold change vs veh, UHRF1BP1L / RFU, BET1 / Fold change vs veh, BET1 / RFU, CNOT2 / Fold change vs veh, CNOT2 / RFU, ZNF268 / Fold change vs veh, ZNF268 / Fold change vs veh, ZNF507 / RFU, DGCR2 / Fold change vs veh, DGCR2 / RFU, WDSUB1 / Fold change vs veh, WDSUB1 / Fold change vs veh, HSP90B1 /// MIR3652 / RFU, ADSS / Fold change vs veh, ADSS / RFU, GK / Fold change vs veh, GK / RFU, ZNF148 / Fold change vs veh, ZNF148 / RFU, TAF9 / Fold change vs veh, TAF9 / RFU, SLC1A5 / Fold change vs veh, SLC1A5 / RFU, SLMO2 / Fold change vs veh, SLMO2 / RFU, ABCC4 / Fold change vs veh, ABCC4 / RFU, LOC101060439 /// RAP1B / Fold change vs veh, LOC101060439 /// RAP1B / RFU, RFX7 / Fold change vs veh, RFX7 / RFU, GTPBP10 / Fold change vs veh, GTPBP10 / RFU, CNEP1R1 / Fold change vs veh, CNEP1R1 / RFU, BIVM-ERCC5 /// ERCC5 / Fold change vs veh, BIVM-ERCC5 /// ERCC5 / RFU, ILF3 / Fold change vs veh, ILF3 / RFU 11762660_at / Fold change /veh 11762660_at / RFU VCAN (11757783_s_at) / Fold change /veh VCAN (11757783_s_at) / RFU DDX43 (11728927_at) / Fold change /veh DDX43 (11728927_at) / RFU KRT8 (11758188_x_at) / Fold change /veh KRT8 (11758188_x_at) / RFU NKD1 (11759106_at) / Fold change /veh NKD1 (11759106_at) / RFU SRD5A1 (11742802_a_at) / Fold change /veh SRD5A1 (11742802_a_at) / RFU TPSAB1 /// TPSB2 (11721975_s_at) / Fold change /veh TPSAB1 /// TPSB2 (11721975_s_at) / RFU GSTM3 (11746129_a_at) / Fold change /veh GSTM3 (11746129_a_at) / RFU IL23R (11737362_x_at) / Fold change /veh IL23R (11737362_x_at) / RFU TMEM51 (11727254_a_at) / Fold change /veh TMEM51 (11727254_a_at) / RFU PIWIL2 (11732686_x_at) / Fold change /veh PIWIL2 (11732686_x_at) / RFU ORM1 (11744905_x_at) / Fold change /veh ORM1 (11744905_x_at) / RFU CCDC152 (11743942_at) / Fold change /veh CCDC152 (11743942_at) / RFU ECM1 (11717891_a_at) / Fold change /veh ECM1 (11717891_a_at) / RFU IL23R (11748794_a_at) / Fold change /veh IL23R (11748794_a_at) / RFU TNFAIP8L3 (11732012_x_at) / Fold change /veh TNFAIP8L3 (11732012_x_at) / RFU MBOAT4 (11741988_at) / Fold change /veh MBOAT4 (11741988_at) / RFU 11764193_at / Fold change /veh 11764193_at / RFU TMEM53 (11763286_at) / Fold change /veh TMEM53 (11763286_at) / RFU MAGEB2 (11727129_at) / Fold change /veh MAGEB2 (11727129_at) / RFU TMEM200A (11744735_a_at) / Fold change /veh TMEM200A (11744735_a_at) / RFU CCDC152 (11751479_a_at) / Fold change /veh CCDC152 (11751479_a_at) / RFU FAM211A (11726209_a_at) / Fold change /veh FAM211A (11726209_a_at) / RFU RGS16 (11746705_a_at) / Fold change /veh RGS16 (11746705_a_at) / RFU VCAN (11755009_s_at) / Fold change /veh VCAN (11755009_s_at) / RFU RHOB (11743442_s_at) / Fold change /veh RHOB (11743442_s_at) / RFU RGS16 (11720943_a_at) / Fold change /veh RGS16 (11720943_a_at) / RFU RGS16 (11720944_at) / Fold change /veh RGS16 (11720944_at) / RFU, VPS4B / Fold change vs veh, VPS4B / RFU, CREB1 / Fold change vs veh, CREB1 / RFU, DNAJC13 / Fold change vs veh, DNAJC13 / RFU, GNAQ / Fold change vs veh, GNAQ / RFU, CDK5R1 / Fold change vs veh, CDK5R1 / RFU, ZRANB3 / Fold change vs veh, ZRANB3 / RFU, CUL4A / Fold change vs veh, CUL4A / RFU, CCNY / Fold change vs veh, CCNY / RFU, UFL1 / Fold change vs veh, UFL1 / RFU, COG3 / Fold change vs veh, COG3 / RFU, DIAPH2 / Fold change vs veh, DIAPH2 / RFU, SKA2 / Fold change vs veh, SKA2 / RFU, AFF3 / Fold change vs veh, AFF3 / RFU, LMF1 / Fold change vs veh, LMF1 / RFU, IPO11 / Fold change vs veh, IPO11 / RFU, DFFB / Fold change vs veh, DFFB / RFU, FOXP1 / Fold change vs veh, FOXP1 / RFU, CARD8 / Fold change vs veh, CARD8 / RFU, STRN3 / Fold change vs veh, STRN3 / RFU, ADK / Fold change vs veh, ADK / RFU, RASSF2 / Fold change vs veh, RASSF2 / RFU, WIPF1 / Fold change vs veh, WIPF1 / RFU, LARP1B / Fold change vs veh, LARP1B / RFU, RASA1 / Fold change vs veh, RASA1 / RFU, RB1 / Fold change vs veh, RB1 / RFU, PPFIA1 / Fold change vs veh, PPFIA1 / RFU, MAT2A / Fold change vs veh, MAT2A / RFU, CCT5 / Fold change vs veh, CCT5 / RFU, WDR92 / Fold change vs veh, WDR92 / RFU, CUX1 / Fold change vs veh, CUX1 / RFU, TTC7A / Fold change vs veh, TTC7A / RFU, TMEM135 / Fold change vs veh, TMEM135 / RFU, DEPTOR / Fold change vs veh, DEPTOR / RFU, CPM / Fold change vs veh, CPM / RFU, DNAJB6 / Fold change vs veh, DNAJB6 / RFU, CACNA2D3 / Fold change vs veh, CACNA2D3 / RFU, DTX4 / Fold change vs veh, DTX4 / RFU, TFCP2 / Fold change vs veh, TFCP2 / RFU, GMCL1 /// GMCL1P1 / Fold change vs veh, GMCL1 /// GMCL1P1 / RFU, AEBP2 / Fold change vs veh, AEBP2 / RFU, SNHG1 /// SNORD22 /// SNORD25 /// SNORD26 /// SNORD27 /// SNORD28 /// SNORD29 /// SNORD31 / Fold change vs veh, SNHG1 /// SNORD22 /// SNORD25 /// SNORD26 /// SNORD27 /// SNORD28 /// SNORD29 /// SNORD31 / Fold change (Aza/veh), C12orf56 (ProbeSet 11735607_a_at) / Fold change (ACY-1035/veh), C12orf56 (ProbeSet 11735607_a_at) / Fold change (Aza/veh), FGFR1OP (ProbeSet 11751329_s_at) / Fold change (ACY-1035/veh), FGFR1OP (ProbeSet 11751329_s_at) / Fold change (Aza/veh), VPS36 (ProbeSet 11739960_a_at) / Fold change (ACY-1035/veh), VPS36 (ProbeSet 11739960_a_at) / RFU SYPL1 (11715823_x_at) / Fold change /veh SYPL1 (11715823_x_at) / RFU IGFBP7 (11715501_s_at) / Fold change /veh IGFBP7 (11715501_s_at) / RFU REEP3 (11722064_at) / Fold change /veh REEP3 (11722064_at) / RFU IGLL1 (11728026_x_at) / Fold change /veh IGLL1 (11728026_x_at): dose or concentration left out as unconfirmed
Conditions: MV-4-11 cells, 48 hours

Question: How did the “RFU A4GNT (11735810_at)” value turn out when `Nc1ccc(-c2cccs2)cc1NC(=O)c1ccc2c(c1)cc(C1CC1)n2CCN1CCOCC1` [ACY-1035] was run?
Answer: Its value is 16.59 RFU.
